Reference: ChEMBL document CHEMBL5230103, “Hydroxamic acid hybrids as the potential anticancer agents: An Overview” (Eur J Med Chem, 2020)
Structures can show the parent of a compound that is named as a salt. Values belong to the compound of their own block, whether it stands above or below them.

Legend:
MCF7 [1] = assay: Cytotoxicity against human MCF7 cells assessed as inhibition of cell growth by SRB assay; assay type: functional, cell-based
SNU-398 = assay: Cytotoxicity against human SNU-398 cells assessed as inhibition of cell growth by SRB assay; assay type: functional, cell-based
Ramos = assay: Cytotoxicity against human Ramos cells assessed as inhibition of cell growth by SRB assay; assay type: functional, cell-based
SU-DHL-6 = assay: Cytotoxicity against human SU-DHL-6 cells assessed as inhibition of cell growth by SRB assay; assay type: functional, cell-based
Histone deacetylase = assay: Inhibition of HDAC (unknown origin); assay type: protein assay, Homo sapiens
EJ = assay: Cytotoxicity against human EJ cells assessed as inhibition of cell growth by MTT assay; assay type: functional, cell-based
HepG2 = assay: Cytotoxicity against human HepG2 cells assessed as inhibition of cell growth by MTT assay; assay type: functional, cell-based
MCF7 [2] = assay: Cytotoxicity against human MCF7 cells assessed as inhibition of cell growth by MTT assay; assay type: functional, cell-based
NCI-H460 = assay: Cytotoxicity against human NCI-H460 cells assessed as inhibition of cell growth by MTT assay; assay type: functional, cell-based
SMMC-7721 = assay: Cytotoxicity against human SMMC-7721 cells assessed as inhibition of cell growth by MTT assay; assay type: functional, cell-based
PANC-1 = assay: Cytotoxicity against human PANC-1 cells assessed as inhibition of cell growth by MTT assay; assay type: functional, cell-based
HCT-116 = assay: Cytotoxicity against human HCT-116 cells assessed as inhibition of cell growth by MTT assay; assay type: functional, cell-based
[3] = Cytotoxicity against chicken heart fibroblast cells; assay type: toxicity, cell-based, Gallus gallus
518A2 = assay: Cytotoxicity against human 518A2 cells assessed as inhibition of cell growth by MTT assay; assay type: functional, cell-based
HT-29 = assay: Cytotoxicity against human HT-29 cells assessed as inhibition of cell growth by MTT assay; assay type: functional, cell-based
KB-V1 = assay: Cytotoxicity against human vinblastine resistant KB-V1 cells assessed as inhibition of cell growth by MTT assay; assay type: functional, cell-based
[4] = Cytotoxicity against human MCF7/Topo cells assessed as inhibition of cell growth by MTT assay; assay type: functional, cell-based
[5] = biological target: Histone deacetylase 8 (Homo sapiens) (UniProt Q9BY41); assay: Inhibition of HDAC8 (unknown origin) at 25 nM relative to control
Jurkat E6.1 = assay: Cytotoxicity against human Jurkat E6.1 cells assessed as inhibition of cell growth by MTT assay; assay type: functional, cell-based
Histone deacetylase 2 = Histone deacetylase 2 (Homo sapiens, UniProt Q92769); assay: Inhibition of HDAC2 (unknown origin)
PC-3 [6] = assay: Potency index, ratio of vorinostat IC50 to test compound IC50 for cytotoxicity against human PC-3 cells assessed as inhibition of cell growth by SRB assay; assay type: functional
ASPC1 [7] = assay: Cytotoxicity against human ASPC1 cells assessed as inhibition of cell growth by SRB assay; assay type: functional, cell-based
SW-620 [8] = assay: Cytotoxicity against human SW620 cells assessed as inhibition of cell growth by SRB assay; assay type: functional, cell-based
ASPC1 [9] = assay: Potency index, ratio of vorinostat IC50 to test compound IC50 for cytotoxicity against human ASPC1 cells assessed as inhibition of cell growth by SRB assay; assay type: functional
PC-3 [10] = assay: Cytotoxicity against human PC-3 cells assessed as inhibition of cell growth by SRB assay; assay type: functional, cell-based
SW-620 [11] = assay: Potency index, ratio of vorinostat IC50 to test compound IC50 for cytotoxicity against human SW620 cells assessed as inhibition of cell growth by SRB assay; assay type: functional
MDA-MB-231 = assay: Antitumor activity against human MDA-MB-231 cells xenografted in mouse assessed as reduction on tumor volume at 20 mg/kg, ip relative to control; assay type: functional; parameters: scale not given: the % may be the effect or the level left
PC-3 [12] = assay: Cytotoxicity against human PC-3 cells assessed as inhibition of cell growth by MTT assay; assay type: functional, cell-based
ES-2 = assay: Cytotoxicity against human ES2 cells assessed as inhibition of cell growth by MTT assay; assay type: functional, cell-based
K562 = assay: Cytotoxicity against human K562 cells assessed as inhibition of cell growth by MTT assay; assay type: functional, cell-based
U-937 = assay: Cytotoxicity against human U-937 cells assessed as inhibition of cell growth by MTT assay; assay type: functional, cell-based
PLC-PRF-5 = assay: Cytotoxicity against human PLC-PRF-5 cells assessed as inhibition of cell growth by MTT assay; assay type: functional, cell-based

Histone deacetylase 2, sequence (Q92769 whole entry): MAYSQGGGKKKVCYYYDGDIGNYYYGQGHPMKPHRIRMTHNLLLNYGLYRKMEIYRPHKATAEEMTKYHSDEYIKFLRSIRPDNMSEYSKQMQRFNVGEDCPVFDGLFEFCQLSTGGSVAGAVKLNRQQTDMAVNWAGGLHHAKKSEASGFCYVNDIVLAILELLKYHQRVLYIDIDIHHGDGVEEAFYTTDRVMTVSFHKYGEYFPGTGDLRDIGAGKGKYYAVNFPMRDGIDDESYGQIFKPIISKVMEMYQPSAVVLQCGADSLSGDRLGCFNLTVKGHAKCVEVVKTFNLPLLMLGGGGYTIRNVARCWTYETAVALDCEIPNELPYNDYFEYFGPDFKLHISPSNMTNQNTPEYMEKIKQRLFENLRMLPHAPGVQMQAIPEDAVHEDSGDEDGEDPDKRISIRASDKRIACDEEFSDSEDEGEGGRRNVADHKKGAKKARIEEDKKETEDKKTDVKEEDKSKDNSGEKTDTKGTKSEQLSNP
Histone deacetylase 8 (Homo sapiens), sequence (Q9BY41 whole entry): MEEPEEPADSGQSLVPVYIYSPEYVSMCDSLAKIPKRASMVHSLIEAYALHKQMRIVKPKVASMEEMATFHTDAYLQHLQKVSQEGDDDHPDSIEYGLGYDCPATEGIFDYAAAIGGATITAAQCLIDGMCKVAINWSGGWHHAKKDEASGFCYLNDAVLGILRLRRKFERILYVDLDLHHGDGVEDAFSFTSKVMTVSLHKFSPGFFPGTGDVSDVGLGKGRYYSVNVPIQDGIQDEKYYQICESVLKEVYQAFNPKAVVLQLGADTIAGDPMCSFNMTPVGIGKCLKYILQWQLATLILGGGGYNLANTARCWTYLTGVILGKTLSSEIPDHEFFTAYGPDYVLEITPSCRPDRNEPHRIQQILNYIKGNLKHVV

SMILES: COc1cccc2c1C(=O)c1c(O)c3c(c(O)c1C2=O)C[C@@](O)(C(=O)CO)C[C@@H]3O[C@H]1C[C@H](N)[C@H](O)[C@H](C)O1 [DOXORUBICIN HYDROCHLORIDE]
- GI50 (MCF7 [1]): 50.2 µM

SMILES: CNC(=O)c1cc(Oc2ccc(NC(=O)Nc3ccc(Cl)c(C(F)(F)F)c3)cc2)ccn1 [SORAFENIB]
- IC50 (SNU-398): 0.001 µM
- IC50 (Ramos): 0.001 µM
- IC50 (SU-DHL-6): 0.001 µM

- IC50 (Histone deacetylase): 0.09 µM
SMILES: COc1cc(/C=C2\N=C(c3ccccc3)N(n3c(SCC(=O)NO)nnc3-c3ccccc3)C2=O)ccc1O
- GI50 (MCF7 [1]): 24.9 µM

SMILES: CC(C)=CCC/C(C)=C/CC/C(C)=C/CSc1ccccc1C(=O)NCCCC(=O)NO
- IC50 (EJ): 4.93 µM
- IC50 (HepG2): 4.93 µM
- IC50 (MCF7 [2]): 4.93 µM
- IC50 (NCI-H460): 4.93 µM
- IC50 (SMMC-7721): 4.93 µM

SMILES: COc1ccc(-c2ncn(C)c2-c2ccc(/C=C/C(=O)NO)cc2)cc1
- IC50 (PANC-1): 0.3 µM
- IC50 (HCT-116): 0.3 µM
- IC50 [3]: > 150 µM
- IC50 (518A2): 0.3 µM
- IC50 (HT-29): 0.3 µM
- IC50 (KB-V1): 0.3 µM
- IC50 [4]: 0.3 µM

SMILES: CC(C)=CCC/C(C)=C/CC/C(C)=C/CSc1ccccc1C(=O)O [SALIRASIB]
- IC50 (EJ): 48.6 µM
- IC50 (HepG2): 48.6 µM
- IC50 (NCI-H460): 48.6 µM
- IC50 (SMMC-7721): 48.6 µM

- inhibition [5]: 75%
SMILES: Nc1ccnc(NC(=O)[C@@H](N)CCCCC(=O)NO)n1
- IC50 (Jurkat E6.1): 20 µM

SMILES: O=C(/C=C/c1ccc(CN2C/C(=N\O)c3cc(Cl)ccc32)cc1)NO
- IC50 (Histone deacetylase 2): 0.086 µM
- Ratio IC50 (PC-3 [6]): 1.8
- IC50 (ASPC1 [7]): 0.47 µM
- IC50 (SW-620 [8]): 0.47 µM
- Ratio IC50 (ASPC1 [9]): 1.8
- IC50 (PC-3 [10]): 0.47 µM
- Ratio IC50 (SW-620 [11]): 1.8

SMILES: Cn1cnc(-c2ccc(F)cc2)c1-c1ccc(/C=C/C(=O)NO)cc1
- IC50 (PANC-1): 0.3 µM
- IC50 (HCT-116): 0.3 µM
- IC50 [3]: > 150 µM
- IC50 (518A2): 0.3 µM
- IC50 (HT-29): 0.3 µM
- IC50 (KB-V1): 0.3 µM
- IC50 [4]: 0.3 µM

SMILES: O=C(CCCCCCC(=O)Nc1cccc2ccn(S(=O)(=O)c3ccccc3)c12)NO
- Activity (MDA-MB-231): 68%

SMILES: CC(C)C[C@H](NC(=O)[C@@H](O)[C@H](N)Cc1ccccc1)C(=O)O [UBENIMEX]
- IC50 (PC-3 [12]): > 500 µM
- IC50 (ES-2): > 500 µM
- IC50 (HepG2): > 500 µM
- IC50 (K562): > 500 µM
- IC50 (U-937): > 500 µM
- IC50 (PLC-PRF-5): > 500 µM
